The source of these data is patent US20240228488A1 (TAKEDA PHARMACEUTICAL COMPANY LIMITED, priority 2021, published 2024).

One experiment addresses T1, plasma kallikrein (Homo sapiens, UniProt P03952).
T1 construct: from tissue
Nature of the experiment: Neat human plasma assay, FXIIa contact pathway-activated, PFR-AMC substrate. Format: biochemical. Particulars: citrated human plasma 78% final, 10 nM human FXIIa, 100 μM PFR-AMC; read-out: Human Plasma Assay: IC90. As to the method: To analyze inhibition of plasma kallikrein in an ex vivo setting, the potency of compounds was measure in contact pathway-activated plasma assays. In a fluorogenic peptide substrate assay, test compounds dissolved in DMSO were added to sodium citrate collected human or rat plasma in a 96-well microplate. Alternatively, citrated plasma was collected from rats administered the compounds orally or by IV. 10 nM of human FXIIa (Enzyme Research Laboratories) diluted in pKal buffer (20 mM Tris-HCl, pH 7.5, 150 mM NaCl, 1 mM EDTA, 0.1% PEG-8000, and 0.1% Triton X-100) was added to the plasma, followed by the 100 μM of the profluorescent, synthetic plasma kallikrein substrate PFR-AMC (also diluted in pKal buffer). Final plasma concentration in the reaction was 78%. Fluorescence was immediately monitored by excitation/emission wavelengths of 360 nm/480 nm respectively over a period of 5 minutes in a microplate reader. The resulting linear increase in fluorescence emission (reflecting pKal proteolysis of PFR-AMC substrate) was fit to extract a proteolytic rate (fluorescent units over time), and this rate was subsequently plotted against compound inhibitor concentration. Resulting plots were fit to a standard 4-parameter IC50/IC90 equation to determine min/max values, IC50/90, and slope. All experimental steps were performed at room temperature. Table 50 provides results of the assay.

The target in experiment [1] is human activated kallikrein enzyme (Homo sapiens, UniProt P03952). Nature of the experiment: Plasma kallikrein inhibition, fluorogenic PFR-AMC substrate, 500 pM activated kallikrein format. In kind it is biochemical. Particulars: 500 pM activated kallikrein, 300 uM PFR-AMC, 30 min preincubation, 10 min reaction; read-out: Primary Dose Response Assay: Average EC50. The procedure, abridged: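 Enzyme at 500 pM preincubated 30 min RT with inhibitors in 20 mM Tris pH 7.5, 1 mM EDTA, 150 mM NaCl, 0.1% PEG-400, 0.1% Triton X-100. Reaction started with 300 uM PFR-AMC, run 10 min RT; fluorescence read at 460 nm emission, 380 nm excitation. EC50 reported in ranges.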
Sequence of human activated kallikrein enzyme (P03952 391-638 limits assumed): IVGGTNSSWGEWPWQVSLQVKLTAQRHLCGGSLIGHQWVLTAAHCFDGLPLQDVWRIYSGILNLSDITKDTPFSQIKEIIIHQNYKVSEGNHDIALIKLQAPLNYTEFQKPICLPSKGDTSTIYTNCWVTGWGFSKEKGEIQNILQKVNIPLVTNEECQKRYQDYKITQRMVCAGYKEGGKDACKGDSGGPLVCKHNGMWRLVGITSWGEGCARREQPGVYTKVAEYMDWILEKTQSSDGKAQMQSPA
Sequence of human activated kallikrein enzyme (P03952 20-390 partner limits assumed): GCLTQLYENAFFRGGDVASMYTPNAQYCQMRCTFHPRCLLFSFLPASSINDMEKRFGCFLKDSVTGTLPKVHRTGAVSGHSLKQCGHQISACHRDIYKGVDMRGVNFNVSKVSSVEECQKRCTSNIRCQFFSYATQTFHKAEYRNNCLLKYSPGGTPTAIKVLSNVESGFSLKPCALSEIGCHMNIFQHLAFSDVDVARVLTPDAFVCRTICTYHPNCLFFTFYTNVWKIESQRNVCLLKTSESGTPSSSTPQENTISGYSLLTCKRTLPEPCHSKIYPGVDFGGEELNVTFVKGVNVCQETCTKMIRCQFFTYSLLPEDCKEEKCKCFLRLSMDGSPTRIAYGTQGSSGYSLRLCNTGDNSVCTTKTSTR

T1 sequence (P03952 391-638 limits assumed): as the sequence (P03952 391-638 limits assumed) above
T1 sequence (P03952 20-390 partner limits assumed): as the sequence (P03952 20-390 partner limits assumed) above

A word on the IC90: it is the concentration needed for an effect of 90%. Broadly, the EC50 is the concentration needed to bring the measured effect to its halfway point. For `O=C(Nc1ncnc(NCc2cn3cc(C4CC4)ccc3n2)n1)[C@H]1C[C@@H]1c1cccc(Cl)c1` (racemic) [Example 344, (rac-(1S*,2S*))-2-(3-chlorophenyl)-N-(4-(((6-cyclopropylimidazo[1,2-a]pyridin-2-yl)methyl)amino)-1,3,5-triazin-2-yl)cyclopropane-1-carboxamide], the IC90 on plasma kallikrein is 1500 to 10000 nM. Also, the EC50 in experiment [1] lay within 1 to 10 nM.

Regarding `Cc1ccnc([C@H]2C[C@@H]2C(=O)Nc2cc(NCc3cn4cc(C5CC5)cc(N5CC(=O)N(C)C5=O)c4n3)nc(CF)n2)n1` (racemic) [Example 353, rac-(1S*,2S*)—N-(6-(((6-cyclopropyl-8-(3-methyl-2,4-dioxoimidazolidin-1-yl)imidazo[1,2-a]pyridin-2-yl)methyl)amino)-2-(fluoromethyl)pyrimidin-4-yl)-2-(4-methylpyrimidin-2-yl)cyclopropane-1-carboxamide], the IC90 on plasma kallikrein lay in the range of 400 to 1500 nM. Further, the 50% effective concentration (EC50) in experiment [1] is less than 1 nM.

As for `Cc1ccnc([C@H]2C[C@@H]2C(=O)Nc2cc(NCc3cn4cc(C5CC5)cc(N5CC(=O)N(C)C5=O)c4n3)nc(C)n2)n1` (racemic) [Example 366, rac-(1S*,2S*)-N-(6-(((6-cyclopropyl-8-(3-methyl-2,4-dioxoimidazolidin-1-yl)imidazo[1,2-a]pyridin-2-yl)methyl)amino)-2-methylpyrimidin-4-yl)-2-(4-methylpyrimidin-2-yl)cyclopropane-1-carboxamide], on plasma kallikrein, the IC90 is less than 400 nM. In addition, in experiment [1], the EC50 was less than 1 nM.

In the case of `Cc1ccnc([C@H]2C[C@@H]2C(=O)Nc2cc(NCc3cn4cc(C5CC5)cc(-n5[nH]c(=O)n(C)c5=O)c4n3)ncn2)n1` (racemic) [Example 386, rac-(1S*,2S*)-N-(6-(((6-cyclopropyl-8-(4-methyl-3,5-dioxo-1,2,4-triazolidin-1-yl)imidazo[1,2-a]pyridin-2-yl)methyl)amino)pyrimidin-4-yl)-2-(4-methylpyrimidin-2-yl)cyclopropane-1-carboxamide], the IC90 at plasma kallikrein was in the range of 1500 to 10000 nM. Besides, the EC50 in experiment [1] is 1 to 10 nM.

As to `Cc1ccnc([C@H]2C[C@@H]2C(=O)Nc2cc(N(C)Cc3cn4cc(C5CC5)cc(N5CC(=O)N(C)C5=O)c4n3)ncn2)n1` (racemic) [Example 387, rac-(1S*,2S*)-N-(6-(((6-cyclopropyl-8-(3-methyl-2,4-dioxoimidazolidin-1-yl)imidazo[1,2-a]pyridin-2-yl)methyl)(methyl)amino)pyrimidin-4-yl)-2-(4-methylpyrimidin-2-yl)cyclopropane-1-carboxamide], the IC90 at plasma kallikrein is less than 400 nM. Also, in experiment [1], the 50% effective concentration (EC50) is less than 1 nM.

As for `Cc1ccnc([C@H]2C[C@@H]2C(=O)Nc2cc(NCc3cn4cc(C5CC5)cc(N5CC(=O)N(CC(F)(F)F)C5=O)c4n3)ncn2)n1` (racemic) [Example 388, rac-(1S*,2S*)-N-(6-(((6-cyclopropyl-8-(2,4-dioxo-3-(2,2,2-trifluoroethyl)imidazolidin-1-yl)imidazo[1,2-a]pyridin-2-yl)methyl)amino)pyrimidin-4-yl)-2-(4-methylpyrimidin-2-yl)cyclopropane-1-carboxamide], the IC90 on plasma kallikrein lay within 400 to 1500 nM. The half-maximal effective concentration (EC50) in experiment [1] is less than 1 nM.

For `Cc1ccnc([C@H]2C[C@@H]2C(=O)Nc2cc(NCc3cn4cc(C5CC5)cc(N5CCCC5=O)c4n3)ncn2)n1` (racemic) [Example 389, rac-(1S*,2S*)-N-(6-(((6-cyclopropyl-8-(2-oxopyrrolidin-1-yl)imidazo[1,2-a]pyridin-2-yl)methyl)amino)pyrimidin-4-yl)-2-(4-methylpyrimidin-2-yl)cyclopropane-1-carboxamide], the IC90 at plasma kallikrein fell in the range of 400 to 1500 nM. The EC50 in experiment [1] was less than 1 nM.

As for `Cc1ccnc([C@H]2C[C@@H]2C(=O)Nc2cc(NCc3cn4cc(C5CC5)cc(N5CCOC5=O)c4n3)ncn2)n1` (racemic) [Example 390, rac-(1S*,2S*)-N-(6-(((6-cyclopropyl-8-(2-oxooxazolidin-3-yl)imidazo[1,2-a]pyridin-2-yl)methyl)amino)pyrimidin-4-yl)-2-(4-methylpyrimidin-2-yl)cyclopropane-1-carboxamide], at plasma kallikrein, the IC90 is less than 400 nM. Moreover, the EC50 in experiment [1] was less than 1 nM.

On to `[2H]C([2H])(Nc1cc(NC(=O)[C@H]2C[C@@H]2c2nccc(C)n2)ncn1)c1cn2cc(C3CC3)cc(N3CC(=O)N(C)C3=O)c2n1` (racemic) [Example 391, rac-(1S*,2S*)-N-(6-(((6-cyclopropyl-8-(3-methyl-2,4-dioxoimidazolidin-1-yl)imidazo[1,2-a]pyridin-2-yl)methyl-d2)amino)pyrimidin-4-yl)-2-(4-methylpyrimidin-2-yl)cyclopropane-1-carboxamide], for which the concentration for an effect of 90% (IC90) at plasma kallikrein is less than 400 nM. The EC50 in experiment [1] was less than 1 nM.

With `Cc1ccnc([C@H]2C[C@@H]2C(=O)Nc2cc(NCc3cn4cc(C5CC5)cc(N5CC(=O)NC5=O)c4n3)ncn2)n1` (racemic) [Example 392, rac-(1S*,2S*)-N-(6-(((6-cyclopropyl-8-(2,4-dioxoimidazolidin-1-yl)imidazo[1,2-a]pyridin-2-yl)methyl)amino)pyrimidin-4-yl)-2-(4-methylpyrimidin-2-yl)cyclopropane-1-carboxamide], on plasma kallikrein, the IC90 fell in the range of 400 to 1500 nM. Further, the concentration giving a half-maximal response (EC50) in experiment [1] was less than 1 nM.

As to `Cc1ccnc([C@H]2C[C@@H]2C(=O)Nc2cc(NCc3cn4cc(C5CC5)cc(N5CC(=O)N(C)C5=O)c4n3)ncn2)c1` (racemic) [Example 393, rac-(1S*,2S*)-N-(6-(((6-cyclopropyl-8-(3-methyl-2,4-dioxoimidazolidin-1-yl)imidazo[1,2-a]pyridin-2-yl)methyl)amino)pyrimidin-4-yl)-2-(4-methylpyridin-2-yl)cyclopropane-1-carboxamide], the IC90 at plasma kallikrein is 400 to 1500 nM. For the same molecule, the EC50 in experiment [1] is less than 1 nM.

`Cc1ccnc([C@H]2C[C@@H]2C(=O)Nc2cc(NCc3cn4cc(C5CC5)cc(N5CC(=O)N(C)C5=O)c4n3)nc(C(F)F)n2)n1` (racemic) [Example 411, rac-(1S*,2S*)-N-(6-(((6-cyclopropyl-8-(3-methyl-2,4-dioxoimidazolidin-1-yl)imidazo[1,2-a]pyridin-2-yl)methyl)amino)-2-(difluoromethyl)pyrimidin-4-yl)-2-(4-methylpyrimidin-2-yl)cyclopropane-1-carboxamide]: at plasma kallikrein, the IC90 is less than 400 nM. Besides, the EC50 in experiment [1] is less than 1 nM.

With `Cc1ccnc([C@H]2C[C@@H]2C(=O)Nc2ncnc(NCc3cn4cc(C5CC5)cc(N5CC(=O)N(C)C5=O)c4n3)c2F)n1` (racemic) [Example 412, rac-(1S*,2S*)-N-(6-(((6-cyclopropyl-8-(3-methyl-2,4-dioxoimidazolidin-1-yl)imidazo[1,2-a]pyridin-2-yl)methyl)amino)-5-fluoropyrimidin-4-yl)-2-(4-methylpyrimidin-2-yl)cyclopropane-1-carboxamide], on plasma kallikrein, the IC90 is 400 to 1500 nM. Besides, the EC50 in experiment [1] fell in the range of 1 to 10 nM.

With `Cc1ccnc([C@H]2C[C@@H]2C(=O)Nc2cc(NCc3cn4cc(C5CC5)ccc4n3)ccn2)n1` (racemic) [Example 414, rac-(1S*,2S*)-N-(4-(((6-cyclopropylimidazo[1,2-a]pyridin-2-yl)methyl)amino)pyridin-2-yl)-2-(4-methylpyrimidin-2-yl)cyclopropane-1-carboxamide], on plasma kallikrein, the IC90 was in the range of 10000 to 48000 nM. Further, in experiment [1], the EC50 is less than 1 nM.

On to `Cc1ccnc([C@H]2C[C@@H]2C(=O)Nc2cc(N[C@H](C)c3cn4cc(C5CC5)cc(N5C[C@@H]6C[C@@H]6C5=O)c4n3)ncn2)n1` (racemic) [Example 443, (1S,2S)—N-(6-(((R)-1-(6-cyclopropyl-8-((1R*,5S*)-2-oxo-3-azabicyclo[3.1.0]hexan-3-yl)imidazo[1,2-a]pyridin-2-yl)ethyl)amino)pyrimidin-4-yl)-2-(4-methylpyrimidin-2-yl)cyclopropane-1-carboxamide], for which, at plasma kallikrein, the concentration for an effect of 90% (IC90) is less than 400 nM. For the same molecule, the EC50 in experiment [1] was less than 1 nM.

As for `Cc1csc([C@H]2C[C@@H]2C(=O)Nc2cc(NCc3cn4cc(C5CC5)cc(N5CC(=O)N(C)C5=O)c4n3)ncn2)n1` (racemic) [Example 446, rac-(1S*,2S*)—N-(6-(((6-cyclopropyl-8-(3-methyl-2,4-dioxoimidazolidin-1-yl)imidazo[1,2-a]pyridin-2-yl)methyl)amino)pyrimidin-4-yl)-2-(4-methylthiazol-2-yl)cyclopropane-1-carboxamide], at plasma kallikrein, the IC90 lay within 400 to 1500 nM. The half-maximal effective concentration (EC50) in experiment [1] is less than 1 nM.

`O=C(Nc1cc(NCc2cn3cc(C4CC4)cc(N4C[C@@H]5C[C@@H]5C4=O)c3n2)ncn1)[C@H]1C[C@@H]1c1cccc(Cl)c1` (racemic) [Example 457, rac-(1S,2S)-2-(3-chlorophenyl)-N-(6-(((6-cyclopropyl-8-((1R*,5S*)-2-oxo-3-azabicyclo[3.1.0]hexan-3-yl)imidazo[1,2-a]pyridin-2-yl)methyl)amino)pyrimidin-4-yl)cyclopropane-1-carboxamide]: on plasma kallikrein, the 90% effect concentration (IC90) was 400 to 1500 nM. For the same molecule, the EC50 in experiment [1] is 1 to 10 nM.
